Assays:
[1] = tested on: patient with Type 1 diabetes on insulin regimen who develops angina; assay: Example III: GTN therapy of angina, Type 1 diabetes patient on insulin regimen; type: in vivo, human
[2] = tested on: alcoholic with restenosis and chest pain; assay: Example VI: restenosis and chest pain in an alcoholic; type: in vivo, human
Text: A alcoholic has restenosis and chest pain.

[3] = tested on: patient with persistent angina; assay: Example I: GTN therapy of persistent angina, patient; type: in vivo, human
Experimental: A patient has persistent angina. Treatment by infusion with GTN 100 mcg/min has no effect. Infusion of nitroglycerin 100 mcg/min is continued along with infusion of N-acetylcysteine at 50 mg/kg every six hours.

[4] = tested on: patient with congestive heart failure; assay: Example II: GTN therapy of congestive heart failure, patient; type: in vivo, human
Experimental: A patient has congestive heart failure manifested by pulmonary congestion and low ventricular function. Treatment by infusion with GTN (100 mcg/min) has no effect. Infusion of GTN (100 mcg/min) is continued along with infusion of N-acetylcysteine at 50 mg/kg every 6 hours. After 10 minutes time, pulmonary congestion attenuates and ventricular function improves.

[5] = tested on: alcoholic patient who develops angina; assay: Example IV: GTN therapy of angina in an alcoholic; type: in vivo, human; details: for resolution of angina: 600 mg P.O. (TID) with sublingual GTN (0.4 mg)
Text: A alcoholic needs to imbibe alcohol to avoid withdrawal symptoms. The patient develops angina. Sublingual GTN ([…]) has no effect.

[6] = tested on: alcoholic with chronic obstructive pulmonary disease; assay: Example VIII: obstructive lung disease in an alcoholic, shortness of breath; type: in vivo, human
Text: A alcoholic with obstructive lung disease (chronic obstructive pulmonary disease) has shortness of breath.

Patient with asthma = assay: Example IX: asthma, patient, shortness of breath; type: in vivo, human; details: nebulized combination of GTN (100 micromolar) and NAC (dose of I millimolar)
Text: A patient with asthma experiences shortness of breath.

[7] = tested on: Patient with interstitial lung disease (pulmonary fibrosis); assay: Example X: interstitial lung disease (pulmonary fibrosis), patient; type: in vivo, human; details: nebulized GTN (10 micromolar) together with nebulized NAC (1 millimolar); patient on prednisone therapy
Text: A patient with interstitial lung disease (pulmonary fibrosis) experiences shortness of breath despite being on prednisone therapy.

[8] = tested on: patients receiving continuous GTN; details: intravenous NAC, short term studies; cited from earlier work
[9] = tested on: patient with heart attack (myocardial infarction); assay: Example V: myocardial infarction, patient; type: in vivo, human; details: IV GTN alone
Text: A patient has a heart attack (myocardial infarction).

[10] = tested on: person with high blood pressure; assay: Example VII: high blood pressure; type: in vivo, human; details: 50 mg/min IV GTN alone; 200 mmHg systolic
Experimental: A person has high blood pressure (200 mmHg systolic). […] Administration of Composition V (50 mg/ml and NAC 75 mg/ml) at 1 ml/min causes blood pressure to fall to 160 mmHg.

[11] = infusion of N-acetylcysteine 50 mg/kg every six hours along with infusion of nitroglycerin 100 mcg/min
[12] = infusion of N-acetylcysteine 50 mg/kg every 6 hours along with infusion of GTN 100 mcg/min
[13] = infusion of GTN 100 mcg/min alone

With `O=C1O[C@H]([C@@H](O)CO)C(O)=C1O` [Vitamin C, ascorbic acid] the resolution of angina ([1]; Vitamin C 10,000 mg/day P.O. along with sublingual GTN (0.4 mg)) was “causes the angina to resolve” and the chest pain ([2]; oral vitamin C (10,000 mg/day P.O.) supplementing sublingual GTN 0.5 mg) was “chest pain is relieved”.
In the case of `CC(=O)N[C@@H](CS)C(=O)O` [N-acetylcysteine], the resolution of angina [3, 11] is reported as “the angina is resolved”, the “time until angina is resolved” value [3, 11] is reported as 3 min and the pulmonary congestion [4, 12] is reported as “attenuates”. The “time until pulmonary congestion attenuates and ventricular function improves” value [4, 12] was 10 min, the ventricular function [4, 12] was “improves” and the resolution of angina ([1]; N-acetylcysteine 600 mg P.O. TID along with sublingual GTN (0.4 mg)) was “causes the angina to resolve”. For the same compound, the resolution of angina [5] was “resolution of the angina”, the chest pain ([2]; oral NAC (300 mg) supplementing sublingual GTN 0.5 mg) was “chest pain is relieved” and the shortness of breath ([6]; nebulized combination of GTN (100 micromolar) and NAC (1 millimolar)) was “causes improvement”. The shortness of breath (Patient with asthma) was “causes improvement”, the shortness of breath [7] was “causes improvement” and the GTN tolerance [8] was “reverse GTN tolerance”.
In the case of `N[C@@H](CCC(=O)N[C@@H](CS)C(=O)NCC(=O)O)C(=O)O` [glutathione], the resolution of angina [5] is reported as “resolution of the angina” and the chest pain ([2]; glutathione 60 mg P.O. (T.I.D.) supplementing sublingual GTN 0.5 mg) is reported as “chest pain is relieved”.
For `O=[N+]([O-])OCC(CO[N+](=O)[O-])O[N+](=O)[O-]` [GTN, nitroglycerin], the “effect on persistent angina” value [3, 13] was “no effect”, the “effect on congestive heart failure (pulmonary congestion, low ventricular function)” value [4, 13] was “no effect” and the effect on angina ([1]; sublingual GTN (0.4 mcg) alone) was “no effect”. The effect on angina ([5]; sublingual GTN (0.4 mcg) alone) was “no effect”, the “response of myocardial infarction patient” value [9] was “does not respond” and the chest pain ([2]; sublingual GTN 0.5 mg alone) was “does not relieve chest pain”. The “response of high blood pressure” value [10] was “does not respond” and the shortness of breath ([6]; nebulized GTN at a dose of 100 micromolar alone) was “does not cause improvement”.
